Where two headings read alike, the source gives them in different places.
How the values were obtained:
[1] = tested on: S. coelicolor 1147 (wild type) and mutants S-1, SG-1, SG-2; test: MIC of antibiotics on GYM agar (screening of drug-resistant mutants); format: cell-based, Streptomyces coelicolor; details: for Concentration at which growth was inhibited completely: GYM agar; for MIC: 2 days of incubation on GYM agar
Description: The spontaneous streptomycin, gentamicin or rifampicin-resistant mutants of S. coelicolor were obtained as the colonies that grew within 7 days at 30° C. after spores (or cells) were spread on GYM agar (composition is the same as the above GYM agar) containing 5 μg streptomycin per ml or 1.0 μg of gentamicin per ml or 200 μg of rifampicin per ml, respectively (Growth of parental strain was inhibited completely with 1 μg of streptomycin per ml, 0.1 μg of gentamicin per ml or 10 μg of rifampicin per ml). The single colonies grew on screening plates were picked out and inoculated to R4 agar containing 1% of glucose, 0.1% of yeast extract, 0.001% of Casamino Acids, 0.3% of proline, 1% of MgCl2·6H2O, 0.4% of CaCl2·2H2O, 0.002% of K2SO4, 0.56% of TES [N-Tris (hydroxymethyl)methyl-2-aminoethanesulfonic acid], 0.2% of trace elements solution (as described for R2YE medium) and 2% of agar (before adding agar, adjusted to pH 7.2). The R4 plates were incubated at 30° C. for 6 days and the amount of blue pigment actinorhodin produced was compared among wild type strain and mutants, and selected the over-producers among the mutants. Then, the mutants with over-producing actinorhodin were inoculated into R4 liquid medium (composition is the same as the R4 agar, but no agar) in 25 ml of test tubes containing 5 ml medium on an orbital shaker at 30° C., 350 rpm. After incubation for 6 days, 1 ml culture samples were taken and adjusted pH to 8.0. After centrifugation at 1100 g for 5 min., actinorhodin production in supernatants was assayed by measurement of the optical density of supernatants at 633 nm. The highest productivity detected reached 1.6-fold for gentamicin-resistant mutants, 1.8-fold for streptomycin-resistant mutants and 3.0-fold for rifampicin-resistant mutants. The frequencies for such high producers were 5%, 6% and 10%, respectively (see Table 1 and FIG. 7).
The spontaneous geneticin, gentamicin or rifampicin-resistant mutants of S-1 were obtained as colonies that grew on GYM agar containing 2.5 μg of geneticin per ml or 2.5 μg of gentamicin per ml or 200 μg of rifampicin per ml. (Growth of S-1 strain was inhibited completely with 0.5 μg of geneticin per ml, 0.5 μg of gentamicin per ml or 10 μg of rifampicin per ml.). Actinorhodin productivity of mutants was examined using R4 agar plates and R4 liquid medium.
The spontaneous rifampicin-resistant mutants of SG-1 and SG-2 strains were obtained as colonies that grew on GYM agar containing 200 μg of rifampicin per ml.

[2] = tested on: S. coelicolor 1147 and drug-resistant mutants; test: Resistance level to antibiotics on GYM agar (Table 2); format: cell-based, Streptomyces coelicolor; details: 4 days on GYM agar
[3] = tested on: Bacillus cereus No. 2045 and mutants; test: Resistance level to gentamicin and rifampicin (Table 4); format: cell-based
Description: A gentamicin-resistant mutant and a rifampicin-and gentamicin-resistant mutant of Bacillus cereus No. 2045 were produced according to a similar manner to that of Examples 1, 2 or 3. Those mutants were precultured in bouillon medium for 10 h. Cells (0.1 ml) were inoculated into 5 ml of production medium consisting of (per liter) 20 g of polypeptone, 20 g of corn steep liquor, and 5 g of NaCl (adjusted to pH 7.5 with NaOH) for 2 days at 30° C.

[4] = tested on: Streptomyces lividans 66 and mutants; test: Resistance level to rifampicin and streptomycin (Table 5); format: cell-based
Description: A rifampicin-resistant mutant and a streptomycin-and rifampicin-resistant mutant of Streptomyces lividans 66 were produced according to a similar manner to that of Examples 1, 2 or 3, and the actinorhodin production was estimated.

[5] = cited from earlier work
[6] = Streptomyces coelicolor, 48 h, strain S. coelicolor 1147 (wild type), read-out: MIC
[7] = parental strain (S. coelicolor wild type)
[8] = strain B. cereus No. 2045, wild-type
[9] = strain S. lividans 66, wild-type

CN[C@@H]1[C@@H](O)[C@@H](O[C@@H]2[C@@H](O)[C@H](O[C@H]3O[C@H]([C@@H](C)O)[C@@H](O)[C@H](O)[C@H]3N)[C@@H](N)C[C@H]2N)OC[C@]1(C)O [Geneticin, geneticin]
Concentration at which growth was inhibited completely ([1]; S-1 strain): 0.5 μg per ml
MIC ([1]; Streptomyces coelicolor, 48 h, strain S-1 (str), read-out: MIC): 0.2 µg/mL
Resistance level ([2]; strain 1147 (wild type)): 0.2 µg/mL
Resistance level ([2]; strain SGe-1): 0.5 µg/mL
Resistance level ([2]; strain SGe-2): 1 µg/mL
Resistance level ([2]; strain SGe-3): 1 µg/mL

CO[C@H]1/C=C/O[C@@]2(C)Oc3c(C)c(O)c4c(O)c(c(/C=N/N5CCN(C)CC5)c(O)c4c3C2=O)NC(=O)/C(C)=C\C=C\[C@H](C)[C@H](O)[C@@H](C)[C@@H](O)[C@@H](C)[C@H](OC(C)=O)[C@@H]1C [Rifampicin, rifampicin]
Concentration at which growth was inhibited completely ([1]; S-1 strain): 10 μg per ml
Concentration at which growth was inhibited completely ([1]; SG-1 strain): 10 μg per ml
Concentration at which growth was inhibited completely ([1]; SG-2 strain): 10 μg per ml
MIC [1, 6]: 10 µg/mL
Concentration at which growth was inhibited completely [1, 7]: 10 μg per ml
MIC ([1]; strain S-1 (str)): Rifampicin(10) μg/ml
MIC ([1]; strain SG-1 (str-gen)): Rifampicin(10) μg/ml
MIC ([1]; strain SG-2 (str-gen)): Rifampicin(10) μg/ml
Resistance level ([2]; S. coelicolor strain SR-1): 50 µg/mL
Resistance level ([2]; S. coelicolor strain SR-2): 150 µg/mL
Resistance level ([2]; S. coelicolor strain SR-3): 400 µg/mL
Resistance level ([2]; strain 1147 (wild type)): 10 µg/mL
Resistance level ([2]; strain R-1): 400 µg/mL
Resistance level ([2]; strain R-2): 400 µg/mL
Resistance level ([2]; strain R-3): 400 µg/mL
Resistance level ([2]; strain SGR-1): 400 µg/mL
Resistance level ([2]; strain SGR-2): 400 µg/mL
Resistance level ([2]; strain SGR-3): 300 µg/mL
Resistance level ([2]; strain SGR-4): 400 µg/mL
Resistance level ([2]; strain SGR-5): 400 µg/mL
Resistance level ([2]; strain SGR-6): 300 µg/mL
Resistance level ([2]; strain SR-4): 400 µg/mL
Resistance level ([2]; strain SR-5): 400 µg/mL
Resistance level ([2]; strain SR-6): 400 µg/mL
Resistance level ([2]; strain SR-7): 400 µg/mL
Resistance level [3, 8]: 1.0 µg/mL
Resistance level ([3]; strain BG-1 (gen)): 1.0 µg/mL
Resistance level ([3]; strain BG-2 (gen)): 0.8 µg/mL
Resistance level ([3]; strain BG-3 (gen)): 1.0 µg/mL
Resistance level ([3]; strain BGR-1 (gen-rif)): 100 µg/mL
Resistance level ([3]; strain BGR-2 (gen-rif)): 120 µg/mL
Resistance level ([3]; strain BGR-3 (gen-rif)): 150 µg/mL
Resistance level ([4]; S. lividans strain SR-1 (rif)): 200 µg/mL
Resistance level ([4]; S. lividans strain SR-2 (rif)): 400 µg/mL
Resistance level ([4]; S. lividans strain SR-3 (rif)): 400 µg/mL
Resistance level [4, 9]: 10 µg/mL
Resistance level ([4]; strain SRS-1 (rif-str)): 400 µg/mL
Resistance level ([4]; strain SRS-2 (rif-str)): 350 µg/mL
Resistance level ([4]; strain SRS-3 (rif-str)): 400 µg/mL

[H]/N=C(/N)N[C@H]1[C@H](O)[C@@H](O)[C@H](O[C@@H]2O[C@@H](C)[C@](O)(C=O)[C@H]2O[C@@H]2O[C@@H](CO)[C@H](O)[C@@H](O)[C@@H]2NC)[C@@H](N/C(N)=N\[H])[C@@H]1O [Streptomycin, streptomycin]
MIC [1, 6]: 1 µg/mL
Concentration at which growth was inhibited completely [1, 7]: 1 μg per ml
Resistance level ([2]; S. coelicolor strain SR-1): 50 µg/mL
Resistance level ([2]; S. coelicolor strain SR-2): 50 µg/mL
Resistance level ([2]; S. coelicolor strain SR-3): 50 µg/mL
Resistance level ([2]; strain 1147 (wild type)): 1 µg/mL
Resistance level ([2]; strain S-1): 100 µg/mL
Resistance level ([2]; strain S-2): 5 µg/mL
Resistance level ([2]; strain S-3): 10 µg/mL
Resistance level ([2]; strain SG-1): 100 µg/mL
Resistance level ([2]; strain SG-2): 100 µg/mL
Resistance level ([2]; strain SG-3): 100 µg/mL
Resistance level ([2]; strain SGR-1): 100 µg/mL
Resistance level ([2]; strain SGR-2): 100 µg/mL
Resistance level ([2]; strain SGR-3): 50 µg/mL
Resistance level ([2]; strain SGR-4): 50 µg/mL
Resistance level ([2]; strain SGR-5): 50 µg/mL
Resistance level ([2]; strain SGR-6): 100 µg/mL
Resistance level ([2]; strain SGe-1): 100 µg/mL
Resistance level ([2]; strain SGe-2): 100 µg/mL
Resistance level ([2]; strain SGe-3): 100 µg/mL
Resistance level ([2]; strain SR-4): 100 µg/mL
Resistance level ([2]; strain SR-5): 100 µg/mL
Resistance level ([2]; strain SR-6): 50 µg/mL
Resistance level ([2]; strain SR-7): 50 µg/mL
Resistance level ([4]; S. lividans strain SR-1 (rif)): 1.0 µg/mL
Resistance level ([4]; S. lividans strain SR-2 (rif)): 0.8 µg/mL
Resistance level ([4]; S. lividans strain SR-3 (rif)): 1.0 µg/mL
Resistance level [4, 9]: 1.0 µg/mL
Resistance level ([4]; strain SRS-1 (rif-str)): 50 µg/mL
Resistance level ([4]; strain SRS-2 (rif-str)): 120 µg/mL
Resistance level ([4]; strain SRS-3 (rif-str)): 100 µg/mL

C[C@H]1O[C@H](CC(=O)O)Cc2c1c(O)c1c(O)c(-c3cc(=O)c4c(=O)c5c(c(=O)c=4c3=O)[C@@H](C)O[C@H](CC(=O)O)C5)cc(O)c1c2O [actinorhodin]
Solubility ([5]; in alcohol, acetic acid, acetone): slightly soluble
Solubility ([5]; in aq acid): Practically insol
Solubility ([5]; in aq alkali (bright blue color)): sol
Solubility ([5]; in piperidine, tetrahydrofuran, dioxane, phenol): Soluble

gentamicin
Concentration at which growth was inhibited completely ([1]; S-1 strain): 0.5 μg per ml
Concentration at which growth was inhibited completely [1, 7]: 0.1 μg per ml
MIC ([1]; strain S-1 (str)): Gentamicin(0.1) μg/ml
MIC ([1]; strain S. coelicolor 1147 (wild type)): Gentamicin (0.1) μg/ml
Resistance level ([2]; strain 1147 (wild type)): 0.1 µg/mL
Resistance level ([2]; strain G-1): 0.3 µg/mL
Resistance level ([2]; strain G-2): 0.3 µg/mL
Resistance level ([2]; strain G-3): 0.3 µg/mL
Resistance level ([2]; strain SG-1): 0.3 µg/mL
Resistance level ([2]; strain SG-2): 0.3 µg/mL
Resistance level ([2]; strain SG-3): 0.3 µg/mL
Resistance level ([2]; strain SGR-1): 0.2 µg/mL
Resistance level ([2]; strain SGR-2): 0.2 µg/mL
Resistance level ([2]; strain SGR-3): 0.3 µg/mL
Resistance level ([2]; strain SGR-4): 0.2 µg/mL
Resistance level ([2]; strain SGR-5): 0.5 µg/mL
Resistance level ([2]; strain SGR-6): 0.3 µg/mL
Resistance level [3, 8]: 0.8 µg/mL
Resistance level ([3]; strain BG-1 (gen)): 4.0 µg/mL
Resistance level ([3]; strain BG-2 (gen)): 4.0 µg/mL
Resistance level ([3]; strain BG-3 (gen)): 4.5 µg/mL
Resistance level ([3]; strain BGR-1 (gen-rif)): 4.5 µg/mL
Resistance level ([3]; strain BGR-2 (gen-rif)): 5.0 µg/mL
Resistance level ([3]; strain BGR-3 (gen-rif)): 5.0 µg/mL

— patent US7314719B2, “Method for increasing productivity of secondary metabolite by conferring drug-resistant mutations” (priority 2001, dated 2008)
